Measured values taken from patent US9533978B2 (AstraZeneca AB, priority 2009, dated 2017).
pEC50: −log10 of the molar value.

Biological target: T1, Recombinant human TLR7 (Homo sapiens, UniProt Q9NYK1)
T1 construct: expressed in transfected cells; host or cells: HEK293 cell line stably expressing the pNiFty2-SEAP reporter plasmid; TLR7 in vector pUNO, blasticidin selection
T1 sequence (Q9NYK1 27-1049): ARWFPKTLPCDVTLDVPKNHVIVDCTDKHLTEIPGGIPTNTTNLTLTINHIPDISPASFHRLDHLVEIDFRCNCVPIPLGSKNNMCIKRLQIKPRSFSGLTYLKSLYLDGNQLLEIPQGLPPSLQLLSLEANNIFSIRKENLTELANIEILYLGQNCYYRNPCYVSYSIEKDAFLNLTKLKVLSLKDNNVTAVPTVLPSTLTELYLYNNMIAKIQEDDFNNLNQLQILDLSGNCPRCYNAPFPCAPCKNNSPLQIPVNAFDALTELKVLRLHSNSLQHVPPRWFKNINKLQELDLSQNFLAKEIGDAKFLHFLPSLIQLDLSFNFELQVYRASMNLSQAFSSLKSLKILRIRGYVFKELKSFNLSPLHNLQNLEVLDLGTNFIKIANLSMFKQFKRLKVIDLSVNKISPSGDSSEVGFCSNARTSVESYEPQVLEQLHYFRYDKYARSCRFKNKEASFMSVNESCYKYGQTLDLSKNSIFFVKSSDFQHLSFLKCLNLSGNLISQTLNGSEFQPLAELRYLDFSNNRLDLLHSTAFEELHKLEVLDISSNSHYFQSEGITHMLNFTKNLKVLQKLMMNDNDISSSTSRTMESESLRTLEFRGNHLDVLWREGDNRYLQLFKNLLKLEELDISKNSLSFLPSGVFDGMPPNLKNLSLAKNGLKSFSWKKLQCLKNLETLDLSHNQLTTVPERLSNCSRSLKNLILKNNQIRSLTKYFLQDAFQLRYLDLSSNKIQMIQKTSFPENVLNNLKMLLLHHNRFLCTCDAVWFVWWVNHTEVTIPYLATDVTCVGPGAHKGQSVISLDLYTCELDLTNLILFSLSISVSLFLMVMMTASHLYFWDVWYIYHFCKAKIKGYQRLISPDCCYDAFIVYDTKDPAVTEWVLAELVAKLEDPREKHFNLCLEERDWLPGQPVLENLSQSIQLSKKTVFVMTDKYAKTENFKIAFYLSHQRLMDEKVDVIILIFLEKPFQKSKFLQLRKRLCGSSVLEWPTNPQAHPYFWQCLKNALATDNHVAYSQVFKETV
Assay: Human TLR7 assay (HEK293 SEAP reporter)
Type: cell-based
Conditions: degree of TLR7 activation; SEAP induction in HEK293 cells stably expressing recombinant human TLR7 and pNiFty2-SEAP reporter, overnight incubation at 37° C., 0.1% (v/v) DMSO
Description: The ability of compounds to activate TLR7 in vitro was assessed using the human TLR7 assay described below.
Recombinant human TLR7 was stably expressed in a HEK293 cell line already stably expressing the pNiFty2-SEAP reporter plasmid; integration of the reporter gene was maintained by selection with the antibiotic zeocin. The most common variant sequence of human TLR7 (represented by the EMBL sequence AF240467) was cloned into the mammalian cell expression vector pUNO and transfected into this reporter cell-line. Transfectants with stable expression were selected using the antibiotic blasticidin. In this reporter cell-line, expression of secreted alkaline phosphatase (SEAP) is controlled by an NFkB/ELAM-1 composite promoter comprising five NFkB sites combined with the proximal ELAM-1 promoter. TLR signaling leads to the translocation of NFkB and activation of the promoter results in expression of the SEAP gene. TLR7-specific activation was assessed by determining the level of SEAP produced following overnight incubation of the cells at 37° C. with the standard compound in the presence of 0.1% (v/v) dimethylsulfoxide (DMSO). Concentration dependent induction of SEAP production by compounds was expressed as the concentration of compound which produced half of the maximal level of SEAP induction for that compound (EC50).

`CCCCCNc1nc(N)nc(C)c1Cc1cccc(CN(C)C)c1` [Example 29, 5-(3-((Dimethylamino)methyl)benzyl)-6-methyl-N^4-pentylpyrimidine-2,4-diamine] gave a pEC50 of 6.50.
In the case of `CCCCCNc1nc(N)nc(C)c1Cc1cccc(OCCN2CCCC2)c1` [Example 28, 6-Methyl-N^4-pentyl-5-(3-(2-(pyrrolidin-1-yl)ethoxy)benzyl)pyrimidine-2,4-diamine], the pEC50 was 5.90.
With `CCCCCNc1nc(N)nc(C)c1Cc1ccc(OCCCN(C)C)cc1` [Example 4] the pEC50 was 7.20.
`COC(=O)Cc1cccc([C@@H](CCO)Nc2nc(N)nc(C)c2Cc2ccc(OCCCN(C)C)cc2OC)c1` [Example 35, (R)-Methyl 2-(3-(1-(2-amino-5-(4-(3-(dimethylamino)propoxy)-2-methoxybenzyl)-6-methylpyrimidin-4-ylamino)-3-hydroxypropyl)phenyl)acetate] was tested, and the pEC50 was 6.50.
Compound `CCCCCNc1nc(N)nc(C)c1Cc1ccc(OCCN(C)Cc2ccccc2)cc1` [Example 7, 5-(4-(2-(Benzyl(methyl)amino)ethoxy)benzyl)-6-methyl-N^4-pentyl-pyrimidine-2,4-diamine] has a pEC50 of 6.20.
`CCCCCNc1nc(N)nc(C)c1Cc1ccc(C#CCN(C)C)cc1` [Example 30, 5-(4-(3-(Dimethylamino)prop-1-ynyl)benzyl)-6-methyl-N4-pentyl-pyrimidine-2,4-diamine] was tested, and the pEC50 was 7.00.
